Measured values taken from US10087242B2 (INSTITUT PASTEUR, priority 2007, dated 2018).
pIC50: −log10 of the molar value.

Key:
Type in all cases: binding, mouse
mIgG C7-37 = assay: inhibition ELISA: oligosaccharide inhibits fixation of mIgG C7-37 on LPS 3a; conditions: concentration of oligosaccharide giving 50% inhibition of fixation of the mAb on LPS 3a (S. flexneri 3a)
Protocol: (§1) The oligosaccharide determinants recognized by the four mAbs obtained were characterized by measuring, by inhibition ELISA, the interaction of the various oligosaccharides synthesized with these mAbs.
(§2) 1) First, a standard curve OD=f(concentration of the mAb) was established for each antibody.
(§3) For this, purified LPS from S. flexneri 3a was fixed in the wells of ELISA plates (96-well plate), at a concentration of 25 μg/ml in a carbonate buffer pH 9.6, at 4° C., overnight.
(§4) After washing the wells with a solution of PBS/ Tween 20 (0.05%) 1% and a stage of saturation with PBS/BSA 1% for 30 minutes at 4° C., various concentrations of each mAb were incubated for 30 minutes at 4° C. After a washing stage, a secondary antibody coupled to alkaline phosphatase and specific to the mouse IgGs or IgMs was added at a dilution of 1/5000 (Sigma-Aldrich) for 1 h at 37° C. After washing, the enzymatic reaction was carried out with the specific substrate of alkaline phosphatase (12 mg of p-nitrophenylphosphate in 1.2 ml of Tris-HCl buffer 1M (pH 8.8) and 10.8 ml of 5M NaCl). Once the color reaction had developed, the plates were read at 405 nm (Dynatech MR 4000 plate reader). The standard curve OD =f(Ab concentration) was refined with the equation Y=aX2+bX+c, where Y corresponds to the OD and X to the antibody concentration. A correlation factor (r2) of 0.99 was generally obtained.
(§5) 2) The concentration of oligosaccharide capable of inhibiting 50% of the fixation of the mAb on LPS 3a was then determined as follows.
(§6) Each mAb was used at a given concentration, defined as the first concentration tested giving a maximum OD on the standard curve (the first point at the start of the plateau of the curve). Various concentrations of each of the oligosaccharides to be tested were then incubated separately with the mAb at constant concentration, overnight at 4° C., in 1% PBS-BSA buffer. Measurement of the free antibody concentration was carried out as stated above, after incubation of the mAb/oligosaccharide mixtures at 4° C. for 30 minutes on plates covered with LPS 3a and using the standard curve obtained in parallel on the same plate. For each mAb and each oligosaccharide, a value called IC50 was then calculated, corresponding to the concentration of oligosaccharide permitting 50% inhibition of the fixation of the mAb on LPS 3a.

IgM (G 19-2) = assay: inhibition ELISA: oligosaccharide inhibits fixation of IgM G19-2 on LPS 3a; conditions: for pIC50: concentration of oligosaccharide giving 50% inhibition of fixation of the mAb on LPS 3a (S. flexneri 3a), inhibition ELISA; for recognition by the mIgM antibody (and by the mIgGs): summary in words of tables 1 and 2, interaction weaker than with the mIgGs
Protocol: Protocol 2) Ten Balb/C mice and four BP2 mice were immunized by i.p. injection with virulent live bacteria of the strain S. flexneri 3a, every three weeks, using 2×10^6 bacteria for the first 2 immunizations and 5×10^6 for the next 4. As the anti-LPS 3a antibody response was too weak for performing cellular fusion, an additional series of 4 injections was carried out. Two mAbs of type IgM, G19-2 and L18-9, were obtained.
as §1, §2, §3, §4, §5, §6

mIgG G7-12 = assay: inhibition ELISA: oligosaccharide inhibits fixation of mIgG G7-12 on LPS 3a; conditions: concentration of oligosaccharide giving 50% inhibition of fixation of the mAb on LPS 3a (S. flexneri 3a)
Protocol: as §1, §2, §3, §4, §5, §6

Compound | pIC50 (mIgG C7-37) | pIC50 (IgM (G 19-2)) | pIC50 (mIgG G7-12) | recognition by the mIgM antibody (and by the mIgGs) (IgM (G 19-2))
CCCO[C@@H]1O[C@@H](C)[C@H](O)[C@@H](O)[C@H]1O[C@@H]1O[C@@H](C)[C@H](O)[C@@H](O[C@H]2O[C@H](CO)[C@@H](O)[C@H](O)[C@H]2O)[C@H]1O[C@@H]1O[C@H](CO)[C@@H](O)[C@H](O)[C@H]1NC(C)=O [DEAB-OPr, Propyl 2-acetamido-2-deoxy-β-D-glucopyranosyl-(1→2)-[α-D-glucopyranosyl-(1→3)]-α-L-rhamnopyranosyl-(1→2)-α-L-rhamnopyranoside] | < 2.30 | < 2.60 | < 2.60 | 
CCCO[C@@H]1O[C@@H](C)[C@H](O)[C@@H](O[C@@H]2O[C@@H](C)[C@H](O)[C@@H](O)[C@H]2O[C@@H]2O[C@@H](C)[C@H](O)[C@@H](O[C@H]3O[C@H](CO)[C@@H](O)[C@H](O)[C@H]3O)[C@H]2O[C@@H]2O[C@H](CO)[C@@H](O)[C@H](O)[C@H]2NC(C)=O)[C@H]1O [DEABC)-OPr, Propyl (2-acetamido-2-deoxy-β-D-glucopyranosyl)-(1→2)-[α-D-glucopyranosyl-(1→3)]-α-L-rhamnopyranosyl-(1→2)-α-L-rhamnopyranosyl-(1→3)-α-L-rhamnopyranoside] | < 2.30 | < 2.60 | < 2.60 | 
CCCO[C@@H]1O[C@@H](C)[C@H](O)[C@@H](O[C@H]2O[C@H](CO)[C@@H](O)[C@H](O)[C@H]2O)[C@H]1O [EA-OPr, Propyl α-D-glucopyranosyl- (1→3)-α-L-rhamnopyranoside] | < 2.30 | < 2.60 | < 2.60 | 
CCCO[C@@H]1O[C@@H](C)[C@H](O)[C@@H](O)[C@H]1O[C@@H]1O[C@@H](C)[C@H](O)[C@@H](O[C@H]2O[C@H](CO)[C@@H](O)[C@H](O)[C@H]2O)[C@H]1O [EAB-OPr, Propyl α-D-glucopyranosyl-(1→3)-α-L-rhamnopyranosyl-(1→2)-α-L-rhamnopyranoside] | < 2.30 | < 2.60 | < 2.60 | 
CCCO[C@@H]1O[C@@H](C)[C@H](O)[C@@H](O[C@@H]2O[C@@H](C)[C@H](O)[C@@H](O)[C@H]2O[C@@H]2O[C@@H](C)[C@H](O)[C@@H](O[C@H]3O[C@H](CO)[C@@H](O)[C@H](O)[C@H]3O)[C@H]2O)[C@H]1OC(C)=O [EABC(2-OAc)-OPr, Propyl α-D-glucopyranosyl-(1→3)-α-L-rhamnopyranosyl-(1→2)-α-L-rhamnopyranosyl-(1→3)-2-O-acetyl-α-L-rhamnopyranoside] | 3.39 | 2.84 | 3.35 | recognized
CCCO[C@@H]1OC(CO)[C@@H](O)C(O[C@@H]2OC(C)[C@H](O)C(O[C@@H]3OC(C)[C@H](O)C(O)C3O[C@@H]3OC(C)[C@H](O)C(O[C@H]4OC(CO)[C@@H](O)C(O)C4O)C3O)C2OC(C)=O)C1NC(C)=O (stereo partly drawn) [EABC(2-OAc)D-OPr, Propyl α-D-glucopyranosyl-(1→3)-α-L-rhamnopyranosyl-(1→2)-α-L-rhamnopyranosyl-(1→3)-(2-O-acetyl-α-L-rhamnopyranosyl)-(1→3)-2-acetamido-2-deoxy-β-D-glucopyranoside] | 3.55 | 2.89 | 3.50 | recognized
CCCO[C@@H]1O[C@@H](C)[C@H](O)[C@@H](O[C@@H]2O[C@@H](C)[C@H](O)[C@@H](O)[C@H]2O[C@@H]2O[C@@H](C)[C@H](O)[C@@H](O[C@H]3O[C@H](CO)[C@@H](O)[C@H](O)[C@H]3O)[C@H]2O)[C@H]1O [EABC-Opr, Propyl α-D-glucopyranosyl-(1→3)-α-L-rhamnopyranosyl-(1→2)-α-L-rhamnopyranosyl-(1→3)-α-L-rhamnopyranoside] | < 2.30 | < 2.60 | < 2.60 | 
CCCO[C@@H]1O[C@H](CO)[C@@H](O)[C@H](O[C@@H]2O[C@@H](C)[C@H](O)[C@@H](O[C@@H]3O[C@@H](C)[C@H](O)[C@@H](O)[C@H]3O[C@@H]3O[C@@H](C)[C@H](O)[C@@H](O[C@H]4O[C@H](CO)[C@@H](O)[C@H](O)[C@H]4O)[C@H]3O)[C@H]2O)[C@H]1NC(C)=O [EABCD-OPr, Propyl α-D-glucopyranosyl-(1→3)-α-L-rhamnopyranosyl-(1→2)-α-L-rhamnopyranosyl-(1→3)-α-L-rhamnopyranosyl-(1→3)-2-acetamido-2-deoxy-β-D-glucopyranoside] | < 3.00 | < 2.60 | < 2.60 | 
Propyl (2/3-O-acetyl-α-L-rhamnopyranosyl)-(1→3)-(2-acetamido-2-deoxy-β-D-glucopyranosyl)-(1→2)-(α-D-glucopyranosyl-(1→3)-α-L-rhamnopyranoside [C(2-OAc)DEA-OPr] | < 2.30 | < 2.60 | < 2.60 | 
